Source: patent US9340590B2 (priority 2011, dated 2016)
Like-named read-outs stand apart in the source and are kept apart here. Positions of bridges follow the written chain, without caps; N, C: chain ends. Non-standard residues stand in square brackets, D forms with d. Residues, ends and D or L forms follow the SMILES beside them. 2Nal = N[C@@H](Cc1ccc2ccccc2c1)C(=O)O; NMeF = CN[C@@H](Cc1ccccc1)C(=O)O

How the values were obtained:
Experiment in all cases: cell-based
[1] = molecular target: hNav1.5 (Homo sapiens, UniProt Q14524); details: IonWorks Quattro, read-out: IWQ Use Nav1.5
[2] = molecular target: hNav1.7 (Homo sapiens, UniProt Q15858); format: cell-based; details: IonWorks Quattro
[3] = molecular target: hNav1.3 (Homo sapiens, UniProt Q9NY46); details: IonWorks Quattro, read-out: IWQ Use Nav1.3
[4] = use-dependent block, hNav1.7, read-out: IWQ Use Nav1.7

Sequence of hNav1.3 (Q9NY46 whole entry, looked up): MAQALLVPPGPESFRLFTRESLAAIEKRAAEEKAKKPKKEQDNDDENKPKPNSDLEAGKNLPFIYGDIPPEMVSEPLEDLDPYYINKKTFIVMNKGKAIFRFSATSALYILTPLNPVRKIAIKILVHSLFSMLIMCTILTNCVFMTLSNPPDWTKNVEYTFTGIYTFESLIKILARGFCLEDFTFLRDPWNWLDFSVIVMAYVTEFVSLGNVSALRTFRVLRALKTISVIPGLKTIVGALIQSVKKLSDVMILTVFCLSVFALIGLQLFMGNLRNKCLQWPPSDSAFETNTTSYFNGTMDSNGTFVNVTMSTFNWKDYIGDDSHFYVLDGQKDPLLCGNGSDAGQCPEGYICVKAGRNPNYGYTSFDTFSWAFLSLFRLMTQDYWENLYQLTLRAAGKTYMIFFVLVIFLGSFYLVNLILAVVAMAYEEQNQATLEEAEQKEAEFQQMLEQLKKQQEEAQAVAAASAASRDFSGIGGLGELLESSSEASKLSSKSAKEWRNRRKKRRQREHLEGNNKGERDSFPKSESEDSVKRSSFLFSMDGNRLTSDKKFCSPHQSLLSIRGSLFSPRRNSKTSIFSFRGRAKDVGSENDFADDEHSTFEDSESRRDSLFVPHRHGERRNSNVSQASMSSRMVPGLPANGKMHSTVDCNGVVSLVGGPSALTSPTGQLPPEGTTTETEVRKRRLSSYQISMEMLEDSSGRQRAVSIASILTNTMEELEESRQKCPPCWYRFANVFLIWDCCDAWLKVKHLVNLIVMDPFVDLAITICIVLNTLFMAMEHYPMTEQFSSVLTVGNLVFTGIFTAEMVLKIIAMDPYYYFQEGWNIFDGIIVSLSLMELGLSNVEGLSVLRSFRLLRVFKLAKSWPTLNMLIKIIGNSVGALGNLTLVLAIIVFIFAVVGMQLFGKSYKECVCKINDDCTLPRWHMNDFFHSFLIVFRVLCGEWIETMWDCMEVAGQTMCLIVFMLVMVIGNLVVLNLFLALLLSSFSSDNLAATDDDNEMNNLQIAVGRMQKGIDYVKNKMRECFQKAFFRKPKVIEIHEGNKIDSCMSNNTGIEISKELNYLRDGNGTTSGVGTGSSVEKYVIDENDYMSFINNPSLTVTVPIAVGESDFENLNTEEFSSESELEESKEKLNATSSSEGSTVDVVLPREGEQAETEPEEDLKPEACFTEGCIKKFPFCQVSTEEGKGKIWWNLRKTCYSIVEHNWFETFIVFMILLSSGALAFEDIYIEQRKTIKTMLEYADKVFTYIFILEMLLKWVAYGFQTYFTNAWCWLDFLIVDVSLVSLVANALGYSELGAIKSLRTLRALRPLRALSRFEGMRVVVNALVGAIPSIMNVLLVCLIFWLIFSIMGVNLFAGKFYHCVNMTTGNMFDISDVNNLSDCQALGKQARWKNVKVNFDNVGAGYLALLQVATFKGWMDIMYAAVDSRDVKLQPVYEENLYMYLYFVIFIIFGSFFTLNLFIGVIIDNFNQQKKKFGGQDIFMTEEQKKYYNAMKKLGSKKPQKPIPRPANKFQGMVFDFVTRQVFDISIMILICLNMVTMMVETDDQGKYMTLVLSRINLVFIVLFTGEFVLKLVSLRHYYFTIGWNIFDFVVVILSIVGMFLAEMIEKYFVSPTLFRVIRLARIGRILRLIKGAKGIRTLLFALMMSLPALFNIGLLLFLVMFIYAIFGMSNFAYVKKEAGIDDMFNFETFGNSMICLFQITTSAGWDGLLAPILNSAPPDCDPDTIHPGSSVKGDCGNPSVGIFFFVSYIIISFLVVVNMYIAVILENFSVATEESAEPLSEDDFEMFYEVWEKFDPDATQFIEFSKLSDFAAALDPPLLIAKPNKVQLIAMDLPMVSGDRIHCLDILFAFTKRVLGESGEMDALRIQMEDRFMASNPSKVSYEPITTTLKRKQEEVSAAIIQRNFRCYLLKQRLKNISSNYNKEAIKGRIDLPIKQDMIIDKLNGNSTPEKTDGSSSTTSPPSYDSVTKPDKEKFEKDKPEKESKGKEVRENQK
Sequence of hNav1.5 (Q14524 whole entry, looked up): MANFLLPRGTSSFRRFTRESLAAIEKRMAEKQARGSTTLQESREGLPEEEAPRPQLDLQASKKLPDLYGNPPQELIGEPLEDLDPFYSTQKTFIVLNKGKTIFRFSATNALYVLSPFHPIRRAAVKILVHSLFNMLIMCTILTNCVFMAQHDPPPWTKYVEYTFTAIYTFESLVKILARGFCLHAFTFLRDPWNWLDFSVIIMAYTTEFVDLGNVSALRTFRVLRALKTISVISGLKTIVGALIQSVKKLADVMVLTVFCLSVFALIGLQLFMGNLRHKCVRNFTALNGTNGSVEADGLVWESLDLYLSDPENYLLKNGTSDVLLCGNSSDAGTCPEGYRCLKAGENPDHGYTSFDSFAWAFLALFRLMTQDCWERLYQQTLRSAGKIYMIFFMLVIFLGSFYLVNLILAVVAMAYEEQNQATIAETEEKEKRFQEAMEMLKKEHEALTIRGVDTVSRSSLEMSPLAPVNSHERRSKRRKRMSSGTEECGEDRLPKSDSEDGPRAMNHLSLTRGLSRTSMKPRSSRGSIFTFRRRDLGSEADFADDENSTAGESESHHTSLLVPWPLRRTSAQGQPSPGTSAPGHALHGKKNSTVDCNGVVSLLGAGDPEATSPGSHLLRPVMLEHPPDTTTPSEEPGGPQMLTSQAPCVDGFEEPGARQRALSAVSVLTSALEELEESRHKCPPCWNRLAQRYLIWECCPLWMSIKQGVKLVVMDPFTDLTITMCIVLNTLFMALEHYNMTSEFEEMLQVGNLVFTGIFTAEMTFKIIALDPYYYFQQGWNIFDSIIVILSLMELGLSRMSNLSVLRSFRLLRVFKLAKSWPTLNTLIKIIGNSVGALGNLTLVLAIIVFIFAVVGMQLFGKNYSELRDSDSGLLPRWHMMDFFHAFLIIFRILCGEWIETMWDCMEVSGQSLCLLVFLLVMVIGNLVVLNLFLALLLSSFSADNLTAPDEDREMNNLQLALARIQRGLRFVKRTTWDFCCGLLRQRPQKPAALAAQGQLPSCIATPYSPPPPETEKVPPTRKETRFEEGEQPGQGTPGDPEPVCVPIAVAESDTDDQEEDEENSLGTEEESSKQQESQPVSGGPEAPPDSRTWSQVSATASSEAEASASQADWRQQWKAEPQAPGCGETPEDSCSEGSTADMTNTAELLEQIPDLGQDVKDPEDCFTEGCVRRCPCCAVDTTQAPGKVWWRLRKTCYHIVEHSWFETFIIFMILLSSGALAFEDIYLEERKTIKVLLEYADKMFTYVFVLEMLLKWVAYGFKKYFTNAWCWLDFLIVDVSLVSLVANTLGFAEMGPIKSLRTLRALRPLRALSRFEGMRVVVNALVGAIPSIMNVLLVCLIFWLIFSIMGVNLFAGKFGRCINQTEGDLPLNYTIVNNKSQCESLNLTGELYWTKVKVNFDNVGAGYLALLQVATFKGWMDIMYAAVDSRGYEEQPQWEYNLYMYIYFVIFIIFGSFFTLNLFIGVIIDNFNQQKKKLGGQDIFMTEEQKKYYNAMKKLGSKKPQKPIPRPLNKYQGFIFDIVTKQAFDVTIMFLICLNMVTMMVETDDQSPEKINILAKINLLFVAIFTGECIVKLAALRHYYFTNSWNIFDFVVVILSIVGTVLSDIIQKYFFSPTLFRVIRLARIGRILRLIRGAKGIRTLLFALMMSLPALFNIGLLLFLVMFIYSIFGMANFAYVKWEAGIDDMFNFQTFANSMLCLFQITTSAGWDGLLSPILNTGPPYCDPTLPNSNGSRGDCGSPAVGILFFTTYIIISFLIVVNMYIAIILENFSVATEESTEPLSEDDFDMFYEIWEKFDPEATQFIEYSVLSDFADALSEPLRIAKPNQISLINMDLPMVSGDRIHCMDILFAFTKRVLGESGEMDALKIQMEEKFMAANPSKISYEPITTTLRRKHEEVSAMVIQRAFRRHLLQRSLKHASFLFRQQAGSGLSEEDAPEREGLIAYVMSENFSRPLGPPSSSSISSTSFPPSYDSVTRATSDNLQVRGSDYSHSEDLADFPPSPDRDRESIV

## CC[C@H](C)[C@@H]1NC(=O)[C@@H]2CSSC[C@@H]3NC(=O)[C@H](Cc4ccccc4)N(C)C(=O)[C@H](CC(C)C)NC(=O)[C@H](CC(N)=O)NC(=O)[C@@H]4CCCN4C(=O)[C@H](CCCNC(=N)N)NC(=O)[C@H](CSSC[C@H](NC(=O)[C@@H](N)CC(=O)O)C(=O)N[C@@H](CC(C)C)C(=O)NCC(=O)N[C@@H](Cc4ccccc4)C(=O)N[C@@H](CCSC)C(=O)N[C@@H](CCCNC(=N)N)C(=O)N[C@@H](CCCCN)C(=O)N2)NC(=O)[C@H](CSSC[C@@H](C(=O)N[C@@H](CCCCN)C(=O)N[C@@H](Cc2ccc(O)cc2)C(=O)N[C@H](C(=O)N[C@@H](Cc2ccccc2)C(N)=O)C(C)C)NC(=O)[C@H](Cc2c[nH]c4ccccc24)NC(=O)[C@H](CCCCN)NC(=O)[C@H](Cc2c[nH]cn2)NC(=O)[C@H]([C@@H](C)O)NC(=O)[C@H](CCCNC(=N)N)NC(=O)[C@H](CO)NC3=O)NC(=O)[C@H](CCCCN)NC(=O)[C@H](CC(=O)O)NC(=O)[C@H](CC(N)=O)NC(=O)[C@H](CC(=O)O)NC(=O)[C@@H]2CCCN2C1=O [compound 328] (H-DCLGFMRKCIPDNDKCCRPNL[NMeF]CSRTHKWCKYVF-NH2; disulfide 2-17, 9-23, 16-30)
[1]; Use
  IC50: 20.4 µM
[2]; Use, read-out: IWQ Use Nav1.7
  IC50: 20.6 µM
[3]; Use
  IC50: 7.37 µM

## CC[C@H](C)[C@@H]1NC(=O)[C@@H]2CSSC[C@@H]3NC(=O)[C@H](C(C)C)NC(=O)[C@H](CC(C)C)NC(=O)[C@H](CC(N)=O)NC(=O)[C@@H]4CCCN4C(=O)[C@H](CCCNC(=N)N)NC(=O)[C@H](CSSC[C@H](NC(=O)[C@@H](N)CC(=O)O)C(=O)N[C@@H](CC(C)C)C(=O)NCC(=O)N[C@@H](Cc4ccccc4)C(=O)N[C@@H](CCSC)C(=O)N[C@@H](CCCNC(=N)N)C(=O)N[C@@H](CCCCN)C(=O)N2)NC(=O)[C@H](CSSC[C@@H](C(=O)N[C@@H](CCCCN)C(=O)N[C@@H](CCCCN)C(=O)N[C@H](C(=O)N[C@@H](Cc2ccccc2)C(N)=O)C(C)C)NC(=O)[C@H](Cc2c[nH]c4ccccc24)NC(=O)[C@H](CCCCN)NC(=O)[C@H](Cc2cnc[nH]2)NC(=O)[C@H]([C@@H](C)O)NC(=O)[C@H](CCCNC(=N)N)NC(=O)[C@H](CO)NC3=O)NC(=O)[C@H](CCCCN)NC(=O)[C@H](CC(=O)O)NC(=O)[C@H](CC(N)=O)NC(=O)[C@H](CC(=O)O)NC(=O)[C@@H]2CCCN2C1=O [compound 57] (H-DCLGFMRKCIPDNDKCCRPNLVCSRTHKWCKKVF-NH2; disulfide 2-17, 9-23, 16-30)
[1]; Table 25, use, […]
  IC50: 10.9 µM
[2]; Table 25, use, […], read-out: IWQ Use Nav1.7
  IC50: 4.96 µM
[3]; Table 25, use, […]
  IC50: 4.19 µM

## CC(C)C[C@@H]1NC(=O)[C@H](C)NC(=O)CNC(=O)[C@H](CC(C)C)NC(=O)[C@@H](NC(=O)[C@@H](N)CC(=O)O)CSSC[C@@H]2NC(=O)[C@@H]3CSSC[C@@H](C(=O)N[C@@H](CCCCN)C(=O)N[C@@H](Cc4ccc(O)cc4)C(=O)N[C@H](C(=O)N[C@@H](Cc4ccccc4)C(N)=O)C(C)C)NC(=O)[C@H](Cc4c[nH]c5ccccc45)NC(=O)[C@H](CCCCN)NC(=O)[C@H](Cc4c[nH]cn4)NC(=O)[C@H]([C@@H](C)O)NC(=O)[C@H](CCCNC(=N)N)NC(=O)[C@H](CO)NC(=O)[C@H](CSSC[C@H](NC(=O)[C@H](CCCCN)NC(=O)[C@H](CCCNC(=N)N)NC1=O)C(=O)N[C@@H](CCC(=O)O)C(=O)N1CCC[C@H]1C(=O)N[C@@H](CC(=O)O)C(=O)N[C@@H](CC(N)=O)C(=O)N[C@@H](CC(=O)O)C(=O)N[C@@H](CCCCN)C(=O)N3)NC(=O)[C@H](C(C)C)NC(=O)[C@H](CC(C)C)NC(=O)[C@H](CC(N)=O)NC(=O)[C@@H]1CCCN1C(=O)[C@H](CCCNC(=N)N)NC2=O [compound 723]
[1]; use-dependent block, hNav1.5
  IC50: > 50 µM
[2]; [4]
  IC50: 0.38 µM
[3]; use-dependent block, hNav1.3
  IC50: 1.2 µM

## CC[C@H](C)[C@@H]1NC(=O)[C@@H]2CSSC[C@@H]3NC(=O)[C@H](C(C)C)NC(=O)[C@H](CC(C)C)NC(=O)[C@H](CC(N)=O)NC(=O)[C@@H]4CCCN4C(=O)[C@H](CCCNC(=N)N)NC(=O)[C@H](CSSC[C@H](NC(=O)[C@@H](N)CC(=O)O)C(=O)N[C@@H](CC(C)C)C(=O)NCC(=O)N[C@@H](Cc4ccccc4)C(=O)N[C@@H](CCSC)C(=O)N[C@@H](CCCNC(=N)N)C(=O)N[C@@H](CCCCN)C(=O)N2)NC(=O)[C@H](CSSC[C@@H](C(=O)N[C@@H](CCCCN)C(=O)N[C@@H](Cc2ccc(O)cc2)C(=O)N[C@H](C(=O)N[C@@H](Cc2ccccc2)C(=O)N[C@@H](Cc2c[nH]c4ccccc24)C(N)=O)C(C)C)NC(=O)[C@H](Cc2c[nH]c4ccccc24)NC(=O)[C@H](CCCCN)NC(=O)[C@H](Cc2c[nH]cn2)NC(=O)[C@H]([C@@H](C)O)NC(=O)[C@H](CCCNC(=N)N)NC(=O)[C@H](CO)NC3=O)NC(=O)[C@H](CCCCN)NC(=O)[C@H](CC(=O)O)NC(=O)[C@H](CC(N)=O)NC(=O)[C@H](CC(=O)O)NC(=O)[C@@H]2CCCN2C1=O [compound 87]
[1]; use-dependent, […]
  IC50: 7.87 µM
[2]; use-dependent, […], read-out: IWQ Use Nav1.7 (μm)
  IC50: 0.05 µM
[3]; use-dependent, […]
  IC50: 0.07 µM

## CC[C@H](C)[C@@H]1NC(=O)[C@@H]2CSSC[C@@H]3NC(=O)[C@H](C(C)C)NC(=O)[C@H](CC(C)C)NC(=O)[C@H](CC(N)=O)NC(=O)[C@@H]4CCCN4C(=O)[C@H](CCCNC(=N)N)NC(=O)[C@H](CSSC[C@H](NC(=O)[C@@H](N)CC(=O)O)C(=O)N[C@@H](CC(C)C)C(=O)NCC(=O)N[C@@H](Cc4ccccc4)C(=O)N[C@@H](CCSC)C(=O)N[C@@H](CCCNC(=N)N)C(=O)N[C@@H](CCCCN)C(=O)N2)NC(=O)[C@H](CSSC[C@@H](C(=O)N[C@@H](CCCCN)C(=O)N[C@@H](Cc2ccc(O)cc2)C(=O)N[C@H](C(=O)N[C@@H](Cc2ccc4ccccc4c2)C(=O)N[C@@H](Cc2c[nH]c4ccccc24)C(N)=O)C(C)C)NC(=O)[C@H](Cc2c[nH]c4ccccc24)NC(=O)[C@H](CCCCN)NC(=O)[C@H](Cc2c[nH]cn2)NC(=O)[C@H]([C@@H](C)O)NC(=O)[C@H](CCCNC(=N)N)NC(=O)[C@H](CO)NC3=O)NC(=O)[C@H](CCCCN)NC(=O)[C@H](CC(=O)O)NC(=O)[C@H](CC(N)=O)NC(=O)[C@H](CC(=O)O)NC(=O)[C@@H]2CCCN2C1=O [compound 139] (H-DCLGFMRKCIPDNDKCCRPNLVCSRTHKWCKYV[2Nal]W-NH2; disulfide 2-17, 9-23, 16-30)
[1]; use-dependent block, hNav1.5
  IC50: 2.12 µM
[2]; [4]
  IC50: 0.11 µM
[3]; use-dependent block, hNav1.3
  IC50: 0.05 µM

## CC[C@H](C)[C@@H]1NC(=O)[C@@H]2CSSC[C@@H]3NC(=O)[C@H](C(C)C)NC(=O)[C@H](CC(C)C)NC(=O)[C@H](CC(N)=O)NC(=O)[C@@H]4CCCN4C(=O)[C@H](CCCNC(=N)N)NC(=O)[C@H](CSSC[C@H](NC(=O)[C@@H](N)CC(=O)O)C(=O)N[C@@H](CC(C)C)C(=O)NCC(=O)N[C@@H](C)C(=O)N[C@@H](CCSC)C(=O)N[C@@H](CCCNC(=N)N)C(=O)N[C@@H](CCCCN)C(=O)N2)NC(=O)[C@H](CSSC[C@@H](C(=O)N[C@@H](CCCCN)C(=O)N[C@@H](C)C(=O)N[C@H](C(=O)N[C@@H](Cc2ccccc2)C(N)=O)C(C)C)NC(=O)[C@H](Cc2c[nH]c4ccccc24)NC(=O)[C@H](CCCCN)NC(=O)[C@H](Cc2c[nH]cn2)NC(=O)[C@H]([C@@H](C)O)NC(=O)[C@H](CCCNC(=N)N)NC(=O)[C@H](CO)NC3=O)NC(=O)[C@H](CCCCN)NC(=O)[C@H](CC(=O)O)NC(=O)[C@H](CC(N)=O)NC(=O)[C@H](CC(=O)O)NC(=O)[C@@H]2CCCN2C1=O [compound 432] (H-DCLGAMRKCIPDNDKCCRPNLVCSRTHKWCKAVF-NH2; disulfide 2-17, 9-23, 16-30)
[1]; use-dependent block, hNav1.5
  IC50: > 5 µM
[2]; [4]
  IC50: > 5 µM
[3]; use-dependent block, hNav1.3
  IC50: > 5 µM
